Experimental data published in PubChem BioAssay (NCI).
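Dose response: 5 concentrations. Exposure: 48 h. Format: 96-well plates. Endpoint: linear interpolation; highest concentration if not reached. Here, GI50 denotes the concentration required for 50% inhibition of growth. TGI is the concentration that stops growth completely.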

Key:
Assay in all cases: NCI anticancer screen, dose series, 48 h
[1] = tested on: K-562 leukemia
[2] = tested on: ACHN renal
[3] = tested on: OVCAR-3 ovarian
[4] = tested on: A549 NSCLC
[5] = tested on: HT29 colon
[6] = tested on: HCT-15 colon
[7] = tested on: IGROV1 ovarian
[8] = tested on: HCT-116 colon
[9] = tested on: OVCAR-8 ovarian
[10] = tested on: U251 CNS
[11] = tested on: MCF7 breast
[12] = tested on: COLO 205 colon
[13] = tested on: SK-MEL-5 melanoma
[14] = tested on: SK-MEL-28 melanoma
[15] = tested on: RXF 393 renal
[16] = tested on: OVCAR-5 ovarian
[17] = tested on: UACC-257 melanoma
[18] = tested on: RPMI-8226 leukemia
[19] = tested on: SN12C renal
[20] = tested on: TK-10 renal
[21] = tested on: CCRF-CEM leukemia
[22] = tested on: DU-145 prostate
[23] = tested on: PC-3 prostate
[24] = tested on: A498 renal
[25] = tested on: MDA-MB-231 breast
[26] = tested on: SK-MEL-2 melanoma
[27] = tested on: SNB-19 CNS
[28] = tested on: SF-539 CNS
[29] = tested on: MALME-3M melanoma
[30] = tested on: M14 melanoma
[31] = tested on: HCC-2998 colon
[32] = tested on: SF-268 CNS
[33] = tested on: SNB-75 CNS
[34] = tested on: MOLT-4 leukemia
[35] = tested on: NCI-H460 lung
[36] = tested on: CAKI-1 renal
[37] = tested on: 786-0 renal
[38] = tested on: OVCAR-4 ovarian
[39] = tested on: BT-549 breast
[40] = tested on: UO-31 renal
[41] = tested on: SW-620 colon
[42] = tested on: SR leukemia
[43] = tested on: NCI-H522 lung
[44] = tested on: UACC-62 melanoma
[45] = tested on: MDA-MB-435
[46] = tested on: EKVX NSCLC
[47] = tested on: SK-OV-3 ovarian
[48] = tested on: SF-295 CNS
[49] = tested on: NCI-H23 lung
[50] = tested on: HL-60(TB) leukemia
[51] = tested on: LOX IMVI melanoma
[52] = tested on: NCI/ADR-RES ovarian
[53] = tested on: HOP-62 NSCLC
[54] = tested on: NCI-H226 lung
[55] = tested on: HS 578T breast
[56] = tested on: KM12 colon
[57] = tested on: HOP-92 NSCLC

C[C@H](Nc1ccc2c(c1)OCCn1cc(N3C(=O)OC[C@H]3C(F)F)nc1-2)C(N)=O
GI50 [1]: > 100 µM | TGI [1]: > 100 µM | GI50 [2]: 5 µM | TGI [2]: > 100 µM | GI50 [3]: 6.26 µM | TGI [3]: > 100 µM | GI50 [4]: 4.82 µM | TGI [4]: > 100 µM | GI50 [5]: 0.153 µM | TGI [5]: > 100 µM | GI50 [6]: 0.52 µM | TGI [6]: > 100 µM | GI50 [7]: 0.0199 µM | TGI [7]: 0.215 µM | GI50 [8]: 17.1 µM | TGI [8]: > 100 µM | GI50 [9]: > 68.3 µM | TGI [9]: > 100 µM | GI50 [10]: > 77.6 µM | TGI [10]: > 100 µM | GI50 [11]: 0.0354 µM | TGI [11]: > 100 µM | GI50 [12]: 2.3 µM | TGI [12]: > 100 µM | GI50 [13]: 20.8 µM | TGI [13]: > 100 µM | GI50 [14]: 7.3 µM | TGI [14]: > 100 µM | GI50 [15]: 5.56 µM | TGI [15]: 45.8 µM | GI50 [16]: 0.421 µM | TGI [16]: > 82.6 µM | GI50 [17]: 11.5 µM | TGI [17]: > 100 µM | GI50 [18]: 31.3 µM | TGI [18]: > 100 µM | GI50 [19]: 13 µM | TGI [19]: > 100 µM | GI50 [20]: 0.517 µM | TGI [20]: > 91.2 µM | GI50 [21]: 7.93 µM | TGI [21]: > 100 µM | GI50 [22]: 20.3 µM | TGI [22]: > 100 µM | GI50 [23]: 3.81 µM | TGI [23]: > 100 µM | GI50 [24]: 2.09 µM | TGI [24]: 10.2 µM | GI50 [25]: 16.4 µM | TGI [25]: 65.3 µM | GI50 [26]: > 100 µM | TGI [26]: > 100 µM | GI50 [27]: 25.3 µM | TGI [27]: > 100 µM | GI50 [28]: 3.12 µM | TGI [28]: 43.8 µM | GI50 [29]: > 20.7 µM | TGI [29]: > 100 µM | GI50 [30]: 68.5 µM | TGI [30]: > 100 µM | GI50 [31]: 1.92 µM | TGI [31]: > 100 µM | GI50 [32]: 29 µM | TGI [32]: > 100 µM | GI50 [33]: 0.0619 µM | TGI [33]: 5.12 µM | GI50 [34]: 2.89 µM | TGI [34]: > 100 µM | GI50 [35]: 1.08 µM | TGI [35]: > 100 µM | GI50 [36]: 4.88 µM | TGI [36]: > 100 µM | GI50 [37]: 9.95 µM | TGI [37]: > 100 µM | GI50 [38]: 79.4 µM | TGI [38]: > 100 µM | GI50 [39]: 5.4 µM | TGI [39]: > 100 µM | GI50 [40]: 1.57 µM | TGI [40]: > 100 µM | GI50 [41]: 20.5 µM | TGI [41]: > 100 µM | GI50 [42]: 38.6 µM | TGI [42]: > 100 µM | GI50 [43]: > 100 µM | TGI [43]: > 100 µM | GI50 [44]: 3.05 µM | TGI [44]: > 100 µM | GI50 [45]: 25.6 µM | TGI [45]: > 100 µM | GI50 [46]: 4.91 µM | TGI [46]: > 100 µM | GI50 [47]: 0.0307 µM | TGI [47]: 0.809 µM | GI50 [48]: 7.8 µM | TGI [48]: > 100 µM | GI50 [49]: 38.5 µM | TGI [49]: > 100 µM | GI50 [50]: 0.413 µM | TGI [50]: > 100 µM | GI50 [51]: 4.8 µM | TGI [51]: 40.4 µM | GI50 [52]: > 69.9 µM | TGI [52]: > 100 µM | GI50 [53]: 17.5 µM | TGI [53]: > 100 µM | GI50 [54]: > 62 µM | TGI [54]: > 100 µM | GI50 [55]: 1.77 µM | TGI [55]: 68.1 µM | GI50 [56]: 46.9 µM | TGI [56]: > 100 µM | GI50 [57]: 0.183 µM | TGI [57]: 16.4 µM
